Tests used:
[1] = molecular target: T1, Protein cereblon (Homo sapiens, UniProt Q96SW2); assay: Binding affinity to NanoLuc-fused CRBN (unknown origin) transfected in live HEK293 cells using NanoGlo as substrate incubated for 2 hrs by NanoBRET assay; assay type: cell-based
[2] = molecular target: T2, Protein cereblon/Bromodomain-containing protein 4/DNA damage-binding protein 1 (Homo sapiens) (UniProt O60885+Q96SW2+Q16531); assay: Binding affinity to biotinylated CRBN/DDB1/N-terminal GST-tagged BRD4-BD1 (unknown origin) assessed as ternary complex formation (KTF) by HTRF assay; assay type: protein assay
[3] = molecular target: T3, Protein cereblon/Bromodomain-containing protein 4 (Homo sapiens, UniProt O60885+Q96SW2); assay: PROTAC activity at CRBN/BRD4 in HEK293 cells assessed as induction of BRD4 degradation by measuring maximal efficacy incubated for 24 hrs by HTRF assay relative to control; assay type: cell-based
[4] = Chromatographic hydrophobicity index, logD of the compound at pH 7.4; assay type: physicochemical; details: buffer
[5] = species: Homo sapiens; assay: Selectivity ratio of IC50 for NanoLuc-fused CRBN (unknown origin) transfected in live HEK293 cells to IC50 for NanoLuc-fused CRBN (unknown origin) transfected in permeabilized HEK293 cells; assay type: cell-based
[6] = molecular target: Bromodomain-containing protein 4 (Homo sapiens, UniProt O60885); assay: Binding affinity to N-terminal GST-tagged BRD4-BD1 (unknown origin) using biotinylated histon4 peptide as substrate incubated for 30 mins by HTRF assay
[7] = molecular target: T2, Protein cereblon/Bromodomain-containing protein 4/DNA damage-binding protein 1 (Homo sapiens); assay: Binding affinity to biotinylated CRBN/DDB1/N-terminal GST-tagged BRD4-BD1(unknown origin) assessed as ternary complex formation (AUC) by HTRF assay; assay type: protein assay
[8] = molecular target: T3, Protein cereblon/Bromodomain-containing protein 4; assay: PROTAC activity at CRBN/BRD4 in HEK293 cells assessed as induction of BRD4 degradation incubated for 24 hrs by HTRF assay; assay type: cell-based
[9] = molecular target: T1, Protein cereblon; assay: Binding affinity to NanoLuc-fused CRBN (unknown origin) transfected in permeabilized HEK293 cells using NanoGlo as substrate incubated for 2 hrs by NanoBRET assay; assay type: cell-based
[10] = molecular target: T4, von Hippel-Lindau disease tumor suppressor/Bromodomain-containing protein 4 (Homo sapiens, UniProt O60885+P40337); assay: PROTAC activity at VHL/BRD4 in HEK293 cells assessed as induction of BRD4 degradation incubated for 24 hrs by HTRF assay; assay type: cell-based
[11] = molecular target: T4, von Hippel-Lindau disease tumor suppressor/Bromodomain-containing protein 4; assay: PROTAC activity at VHL/BRD4 in HEK293 cells assessed as induction of BRD4 degradation by measuring maximal efficacy incubated for 24 hrs by HTRF assay relative to control; assay type: cell-based

T4 sequence (P40337 whole entry, looked up, other chains not shown): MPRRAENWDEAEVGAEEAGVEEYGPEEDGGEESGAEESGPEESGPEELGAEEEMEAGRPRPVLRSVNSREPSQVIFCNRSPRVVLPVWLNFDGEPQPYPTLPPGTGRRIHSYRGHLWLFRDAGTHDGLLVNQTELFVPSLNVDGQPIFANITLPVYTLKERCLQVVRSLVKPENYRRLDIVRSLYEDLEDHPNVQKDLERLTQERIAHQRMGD

Compound | IC50 [1] | Emax [3] | chromatographic logD [4] | IC50 [6] | DC50 [8] | IC50 [9] | DC50 [10] | Emax [11] | K [2] | Ratio IC50 [5] | AUC [7]
Cc1sc2c(c1C)C(c1ccc(Cl)cc1)=N[C@@H](CC(=O)OCCCCNC(=O)COc1cccc3c1C(=O)N(C1CCC(=O)NC1=O)C3=O)c1nnc(C)n1-2 (stereo not given in full) | 264 nM | 83% | 2.68 | 2.3 nM | 5.4 nM | 68.8 nM | – | – | 5 nM | 2.4 | 158
Cc1ncsc1-c1ccc(CNC(=O)[C@@H]2C[C@@H](O)CN2C(=O)[C@H](C(C)C)N2Cc3ccccc3C2=O)c(OCCCOCCOC(=O)C[C@@H]2N=C(c3ccc(Cl)cc3)c3c(sc(C)c3C)-n3c(C)nnc32)c1 | – | – | 3.25 | – | – | – | 15.8 nM | 89% | – | – | –
Cc1ncsc1-c1ccc(CNC(=O)[C@@H]2C[C@@H](O)CN2C(=O)[C@H](C(C)C)N2Cc3ccccc3C2=O)c(OCCCOCCNC(=O)C[C@@H]2N=C(c3ccc(Cl)cc3)c3c(sc(C)c3C)-n3c(C)nnc32)c1 | – | – | 2.78 | – | – | – | 68.3 nM | 87% | – | – | –
Cc1ncsc1-c1ccc(CNC(=O)[C@@H]2C[C@@H](O)CN2C(=O)[C@H](C(C)C)N2Cc3ccccc3C2=O)c(OCCCOCCNCC[C@@H]2N=C(c3ccc(Cl)cc3)c3c(sc(C)c3C)-n3c(C)nnc32)c1 | – | – | 2.3 | – | – | – | > 11000 nM | 14% | – | – | –

More lines, main results first:

IC50 [1] | Emax [3] | chromatographic logD [4] | IC50 [6] | DC50 [8] | IC50 [9] | DC50 [10] | Emax [11] | Compound | K [2] | Ratio IC50 [5] | AUC [7]
– | 80% | 2.16 | – | – | – | – | – | Cc1sc2c(c1C)C(c1ccc(Cl)cc1)=N[C@@H](CC(=O)NCCCCNC(=O)COc1cccc3c1C(=O)N(C1CCC(=O)NC1=O)C3=O)c1nnc(C)n1-2 (stereo not given in full) | 9.4 nM | – | 163
503 nM | 76% | 2.81 | 66.9 nM | 10.8 nM | 121 nM | – | – | Cc1sc2c(c1C)C(c1ccc(Cl)cc1)=N[C@@H](CCCCCNC(=O)COc1cccc3c1C(=O)N(C1CCC(=O)NC1=O)C3=O)c1nnc(C)n1-2 (stereo not given in full) | 29.2 nM | 4.2 | 156
11300 nM | 2% | 1.66 | 453 nM | > 11000 nM | 102 nM | – | – | Cc1sc2c(c1C)C(c1ccc(Cl)cc1)=N[C@@H](CCNCCCCNC(=O)COc1cccc3c1C(=O)N(C1CCC(=O)NC1=O)C3=O)c1nnc(C)n1-2 (stereo not given in full) | 108 nM | 110 | 71.5
– | – | 3.16 | – | – | – | 13.4 nM | 79% | Cc1ncsc1-c1ccc(CNC(=O)[C@@H]2C[C@@H](O)CN2C(=O)[C@H](C(C)C)N2Cc3ccccc3C2=O)c(OCCCOCCC(=O)C[C@@H]2N=C(c3ccc(Cl)cc3)c3c(sc(C)c3C)-n3c(C)nnc32)c1 | – | – | –
422 nM | 85% | 2.57 | 24.2 nM | 9.2 nM | 107 nM | – | – | Cc1sc2c(c1C)C(c1ccc(Cl)cc1)=N[C@@H](CC(=O)CCCCNC(=O)COc1cccc3c1C(=O)N(C1CCC(=O)NC1=O)C3=O)c1nnc(C)n1-2 (stereo not given in full) | 6.7 nM | 3.9 | 251
– | – | 3.38 | – | – | – | 228 nM | 58% | Cc1ncsc1-c1ccc(CNC(=O)[C@@H]2C[C@@H](O)CN2C(=O)[C@H](C(C)C)N2Cc3ccccc3C2=O)c(OCCCOCCCC[C@@H]2N=C(c3ccc(Cl)cc3)c3c(sc(C)c3C)-n3c(C)nnc32)c1 | – | – | –
